The values below come from patent US9283285B2, “Stable nanocomposition comprising docetaxel, process for the preparation thereof, its use and pharmaceutical compositions containing it” (BBS Nanotechnology Ltd., priority 2013, dated 2016).

In this assay the test system is HeLa cells, A2780 cells. The assay can be described thus: growth profile of cells by Real Time Analyser (xCELLigence RTCA, Roche). Format: cell-based, human. Particulars: HeLa and A2780 cells; same concentration of docetaxel; FIG. 2. From the text: FIG. 2A, 2B: HeLa and A2780 measured by Real Time Analyser (Roche). These figures show the growth profile of HeLa cells (A), and A2780 cells (B) after treating with docetaxel drug molecules (D), docetaxel-loaded nanoparticles (NP) and control cells (C). The injected volume contained the same concentration of docetaxel.
The xCELLigence RTCA HT Instrument from Roche Applied Science uses gold electrodes at the bottom surface of microplate wells as sensors to which an alternating current is applied. Cells that are grown as adherent monolayers on top of such electrodes influence the alternating current at the electrodes by changing the electrical resistance (impedance). The degree of this change is primarily determined by the number of cells, strength of the cell-cell interactions, interactions of the cells with the microelectrodes and by the overall morphology of the cells. The RTCA Software calculates the Cell Index (CI) as the relative change in measured impedance to represent cell status. The normalized cell index (NCI—plotted on y axis) is the relative cell impedance presented in the percentage of the value at the base-time. […] NCI increases by rise of cell-number or cell-size. For example NCI value in a culture treated with a proliferation inhibitory drug first can increase (because the cell-size grows) and after decreases (because the cell-number reduces)

The structures appear in SMILES notation.

Regarding `CC(=O)O[C@@]12CO[C@@H]1C[C@H](O)[C@@]1(C)C(=O)[C@H](O)C3=C(C)[C@@H](OC(=O)[C@H](O)[C@@H](NC(=O)OC(C)(C)C)c4ccccc4)C[C@@](O)([C@@H](OC(=O)c4ccccc4)[C@H]21)C3(C)C` [docetaxel, 1,7β,10β-trihydroxy-9-oxo-5β,20-epoxytax-11-ene-2α,4,13α-triyl 4-acetate 2-benzoate 13-{(2R,3S)-3-[(tert-butoxycarbonyl)amino]-2-hydroxy-3-phenylpropanoate}], the “effect on growth profile (normalized cell index) of tumor cell lines” value is on record as “similar”.
